Source: the NIST ThermoML archive (doi:10.1021/acs.jced.8b01097)

Test: xn = mol fraction of the nth substance listed
Conditions: 85 kPa, Liquid; for viscosity: Concentric cylinders viscometry; for mass density: Vibrating tube method

CCC(C)O (centres undefined) [butan-2-ol] + CC(C)O
Conditions	mass density [kg/m3]	viscosity [mPa·s]
293.15 K, x1 = 0.0807	787.1	2.497
293.15 K, x1 = 0.1619	789.2	2.584
293.15 K, x1 = 0.2385	791	2.674
293.15 K, x1 = 0.3492	793.6	2.814
293.15 K, x1 = 0.4386	795.7	2.932
293.15 K, x1 = 0.56	798.3	3.097
293.15 K, x1 = 0.6489	800	3.221
293.15 K, x1 = 0.7402	801.8	3.352
293.15 K, x1 = 0.8494	803.7	3.511
293.15 K, x1 = 0.9403	805.3	3.648
293.15 K, x1 = 1	806.2	3.743
298.15 K, x1 = 0.0807	782.9	2.146
298.15 K, x1 = 0.1619	785	2.211
298.15 K, x1 = 0.2385	786.9	2.282
298.15 K, x1 = 0.3492	789.5	2.391
298.15 K, x1 = 0.4386	791.5	2.481
298.15 K, x1 = 0.56	794.1	2.607
298.15 K, x1 = 0.6489	795.9	2.702
298.15 K, x1 = 0.7402	797.6	2.801
298.15 K, x1 = 0.8494	799.6	2.923
298.15 K, x1 = 0.9403	801.1	3.028
298.15 K, x1 = 1	802	3.101
303.15 K, x1 = 0.0807	778.7	1.851
303.15 K, x1 = 0.1619	780.8	1.901
303.15 K, x1 = 0.2385	782.7	1.955
303.15 K, x1 = 0.3492	785.3	2.038
303.15 K, x1 = 0.4386	787.4	2.107
303.15 K, x1 = 0.56	790	2.204
303.15 K, x1 = 0.6489	791.8	2.276
303.15 K, x1 = 0.7402	793.5	2.352
303.15 K, x1 = 0.8494	795.5	2.444
303.15 K, x1 = 0.9403	797	2.524
303.15 K, x1 = 1	797.9	2.579
308.15 K, x1 = 0.0807	774.4	1.603
308.15 K, x1 = 0.1619	776.5	1.643
308.15 K, x1 = 0.2385	778.5	1.684
308.15 K, x1 = 0.3492	781.1	1.747
308.15 K, x1 = 0.4386	783.1	1.801
308.15 K, x1 = 0.56	785.7	1.876
308.15 K, x1 = 0.6489	787.5	1.932
308.15 K, x1 = 0.7402	789.3	1.991
308.15 K, x1 = 0.8494	791.2	2.062
308.15 K, x1 = 0.9403	792.7	2.121
308.15 K, x1 = 1	793.6	2.162
313.15 K, x1 = 0.0807	769.9	1.397
313.15 K, x1 = 0.1619	772.1	1.427
313.15 K, x1 = 0.2385	774	1.459
313.15 K, x1 = 0.3492	776.7	1.508
313.15 K, x1 = 0.4386	778.7	1.549
313.15 K, x1 = 0.56	781.3	1.608
313.15 K, x1 = 0.6489	783.1	1.652
313.15 K, x1 = 0.7402	784.9	1.697
313.15 K, x1 = 0.8494	786.8	1.751
313.15 K, x1 = 0.9403	788.4	1.798
313.15 K, x1 = 1	789.2	1.828
318.15 K, x1 = 0.0807	765.5	1.221
318.15 K, x1 = 0.1619	767.6	1.246
318.15 K, x1 = 0.2385	769.6	1.271
318.15 K, x1 = 0.3492	772.2	1.31
318.15 K, x1 = 0.4386	774.3	1.342
318.15 K, x1 = 0.56	776.9	1.388
318.15 K, x1 = 0.6489	778.7	1.422
318.15 K, x1 = 0.7402	780.4	1.457
318.15 K, x1 = 0.8494	782.4	1.5
318.15 K, x1 = 0.9403	783.9	1.536
318.15 K, x1 = 1	784.7	1.559
323.15 K, x1 = 0.0807	760.9	1.072
323.15 K, x1 = 0.1619	763.1	1.093
323.15 K, x1 = 0.2385	765	1.113
323.15 K, x1 = 0.3492	767.7	1.144
323.15 K, x1 = 0.4386	769.7	1.169
323.15 K, x1 = 0.56	772.4	1.205
323.15 K, x1 = 0.6489	774.2	1.231
323.15 K, x1 = 0.7402	775.9	1.258
323.15 K, x1 = 0.8494	777.9	1.291
323.15 K, x1 = 0.9403	779.4	1.318
323.15 K, x1 = 1	780.2	1.318
